The text below walks through data of publication PMC5224920, “Assessing the mechanism and therapeutic potential of modulators of the human Mediator complex-associated protein kinases” (eLife, 2016).

For one data set, the system named is HT29. Put plainly: 96 hour proliferation GI50, HT29. As to conditions: Homo sapiens, HT-29, 96 h, read-out: 96 hour GI50.
The test system of data set [1] is COLO205. Briefly: 24 hour TCF/LEF reporter assay, COLO205. In kind it is cell-based. As to conditions: Homo sapiens, COLO 205, 24 h, read-out: 24 hour TCF/LEF Reporter assay IC50; COLO205; mean (s.d.), n = 4.
Data set [2] relates to RKO. Put plainly: 24 hour reporter assay, RKO negative control (EEF1A1 promoter-reporter). As to conditions: Homo sapiens, read-out: 24 hour TCF/LEF Reporter assay IC50, RKO negative control, WNT-independent EEF1A1 promoter-reporter. In kind it is cell-based.
The subject of data set [3] is SW837. Briefly: 24 hour TCF/LEF reporter assay, SW837. As to conditions: Homo sapiens, 24 h, read-out: 24 hour TCF/LEF Reporter assay IC50; SW837; mean (s.d.), n = 4. In kind it is cell-based. For orientation: In a reporter assay the amount or activity of a reporter protein is the signal.
For data set [4], the system named is RKO. Put plainly: 96 hour proliferation GI50, RKO. As to conditions: Homo sapiens, read-out: 96 hour GI50.
The test system of data set [5] is PDX soft agar colony cultures. Put plainly: Soft agar clonogenic assay, cells from 89 PDX models. In kind it is cell-based, human. As to conditions: soft agar clonogenic assays; in one-third of PDX cell cultures. From the text: To follow up our standard xenograft experiments, we next tested compound activity in human patient-derived tumor xenograft models (PDXs). Firstly, we determined if our compounds were active in in vitro soft agar clonogenic assays, using cells derived from 89 distinct PDX models from different tissue types. In this assay, colony growth was inhibited, but only by up to 50%, in one-third of PDX cell cultures treated with tool compound 2 (Figure 3A–B). Six of the more sensitive colorectal PDX tumor models were selected for in vivo monotherapy either with the lead compound 3 alone, or combined with a standard of care drug (irinotecan or oxaliplatin). […] Importantly, the combination of 3 with standard of care therapies was only of statistically significant benefit in one colorectal tumor model, CFX 1034 (p<0.001; Figure 3C and Figure 3—figure supplement 1).

Data set [6] relates to COLO205. Briefly: 96 hour proliferation GI50, COLO205. As to conditions: Homo sapiens, COLO 205, 96 h, read-out: 96 hour GI50.
The subject of data set [7] is LS174T. Put plainly: LS174T basal WNT-pathway luciferase reporter. As to conditions: Homo sapiens, LS174T, read-out: LS174T IC50.
Data set [8] has as its system LS180. Put plainly: 24 hour TCF/LEF reporter assay, LS180. In kind it is cell-based. As to conditions: Homo sapiens, 24 h, read-out: 24 hour TCF/LEF Reporter assay IC50; LS180; mean (s.d.), n = 4.
For a further data set, the target named is TRK3B. Put plainly: Off-target kinase IC50, TRK3B. In kind it is biochemical.
Data set [9] relates to DLD1. Briefly: 24 hour TCF/LEF reporter assay, DLD1. In kind it is cell-based. As to conditions: Homo sapiens, DLD-1, 24 h, read-out: 24 hour TCF/LEF Reporter assay IC50; DLD1; mean (s.d.), n = 4.
The test system of data set [10] is LS174T. Put plainly: 96 hour proliferation GI50, LS174T. As to conditions: Homo sapiens, read-out: 96 hour GI50.
The test system of another data set is LS513. Briefly: 96 hour proliferation GI50, LS513. As to conditions: Homo sapiens, LS-513, 96 h, read-out: 96 hour GI50.
The subject of data set [11] is DLD1. Put plainly: 96 hour proliferation GI50, DLD1. As to conditions: Homo sapiens, DLD-1, 96 h, read-out: 96 hour GI50.
For another data set, the system named is Nomo-1. Put plainly: Soft agar assay, Nomo-1 AML cell line. It counts as cell-based. As to conditions: Homo sapiens. The text has this: The most CDK8/19 inhibitor sensitive cell model in the soft agar assays was one of the two acute myeloid leukaemia (AML) cell lines, Nomo-1, included in the cell panel.
In data set [12] the test system is SW837. Briefly: 96 hour proliferation GI50, SW837. As to conditions: Homo sapiens, SW837, 96 h, read-out: 96 hour GI50.
Another data set deals with SW948. Briefly: 96 hour proliferation GI50, SW948. As to conditions: Homo sapiens, SW948, 96 h, read-out: 96 hour GI50.
A further data set concerns p-STAT1^SER727. Put plainly: Inhibition of STAT1 SER727 phosphorylation in cells (target-engagement biomarker).
A further data set in a line: Mouse PK. In kind it is in vivo. As to conditions: 0.2mg/kg i.v.
A short description of the next data set: Rat PK. It counts as in vivo.
A further data set concerns the target T1, CDK19 (Homo sapiens, UniProt Q9BWU1).
T1 construct: purchased Proteros Biostructures GmbH (Germany), assay service
Briefly: CDK19 reporter displacement assay. As to conditions: mean ± s.d. (at least three) or *± range (two repeats); read-out: CDK19 IC50. It counts as binding.

The nature of another data set: Dog PK. It counts as in vivo.
For data set [13], the system named is LS174T. Put plainly: 24 hour TCF/LEF reporter assay, LS174T. In kind it is cell-based. As to conditions: Homo sapiens, read-out: 24 hour TCF/LEF Reporter assay IC50, mean (s.d.), n = 4.
The next data set deals with SW620. Briefly: 96 hour proliferation GI50, SW620. As to conditions: Homo sapiens, SW-620, 96 h, read-out: 96 hour GI50.
For data set [14], the system named is LS180. Briefly: 96 hour proliferation GI50, LS180. As to conditions: Homo sapiens, LS180, 96 h, read-out: 96 hour GI50.
The test system of data set [15] is mouse KS483 osteoprogenitor cells. Put plainly: Bone formation assay in KS483 osteoprogenitor cells (PINP, calcium). It counts as cell-based. As to conditions: 13 d. The procedure:
Bone formation assays were conducted by Pharmatest (Finland) in mouse KS483 osteoprogenitor cells cultured for 13 d with LGK974 or 3. The amount of PINP secreted into the culture medium, and calcium deposition, were measured by ELISA (Roche Diagnostics, UK).

The target in the next data set is CDK8 (Homo sapiens, UniProt P49336). Put plainly: CDK8 binding (Lanthascreen binding competition / reporter displacement assay). As to conditions: mean ± s.d. (at least three) or *± range (two repeats); read-out: CDK8 IC50. On the technique in general: In TR-FRET formats the signal depends on donor and acceptor labels being close together.
Sequence of CDK8 (P49336 whole entry): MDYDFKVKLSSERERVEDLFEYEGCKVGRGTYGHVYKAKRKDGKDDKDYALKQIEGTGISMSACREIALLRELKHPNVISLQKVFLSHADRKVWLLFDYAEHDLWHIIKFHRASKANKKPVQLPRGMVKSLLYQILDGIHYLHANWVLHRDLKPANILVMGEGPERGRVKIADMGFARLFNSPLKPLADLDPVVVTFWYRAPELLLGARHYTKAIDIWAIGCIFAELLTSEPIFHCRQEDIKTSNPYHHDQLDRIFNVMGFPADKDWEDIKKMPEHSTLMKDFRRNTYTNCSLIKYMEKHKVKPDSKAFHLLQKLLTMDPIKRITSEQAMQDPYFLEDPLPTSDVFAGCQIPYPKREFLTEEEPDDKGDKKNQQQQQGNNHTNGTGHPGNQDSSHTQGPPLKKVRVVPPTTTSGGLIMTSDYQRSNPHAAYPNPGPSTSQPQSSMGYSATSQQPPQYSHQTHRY
Sequence of CDK8 (P24863 whole entry partner): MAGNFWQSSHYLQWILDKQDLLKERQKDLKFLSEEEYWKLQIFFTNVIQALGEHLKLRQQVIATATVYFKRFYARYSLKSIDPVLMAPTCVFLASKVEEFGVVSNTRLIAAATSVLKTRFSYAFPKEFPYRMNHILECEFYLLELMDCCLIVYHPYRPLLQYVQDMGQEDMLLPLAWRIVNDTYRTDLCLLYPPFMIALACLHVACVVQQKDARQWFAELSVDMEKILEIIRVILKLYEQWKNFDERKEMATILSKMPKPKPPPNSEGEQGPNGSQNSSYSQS
The next data set deals with 7dF3. Briefly: 7dF3 inducible WNT-pathway luciferase reporter.
[16] abbreviates: read-out: p-STAT1^SER727 IC50, mean ± s.d. or *± range.
Setting [17] is: read-out: p-STAT1^SER727 IC50; mean ± s.d. or *± range.

Read-outs that look alike come from different tables or passages of the source.

T1 sequence (Q9BWU1 whole entry): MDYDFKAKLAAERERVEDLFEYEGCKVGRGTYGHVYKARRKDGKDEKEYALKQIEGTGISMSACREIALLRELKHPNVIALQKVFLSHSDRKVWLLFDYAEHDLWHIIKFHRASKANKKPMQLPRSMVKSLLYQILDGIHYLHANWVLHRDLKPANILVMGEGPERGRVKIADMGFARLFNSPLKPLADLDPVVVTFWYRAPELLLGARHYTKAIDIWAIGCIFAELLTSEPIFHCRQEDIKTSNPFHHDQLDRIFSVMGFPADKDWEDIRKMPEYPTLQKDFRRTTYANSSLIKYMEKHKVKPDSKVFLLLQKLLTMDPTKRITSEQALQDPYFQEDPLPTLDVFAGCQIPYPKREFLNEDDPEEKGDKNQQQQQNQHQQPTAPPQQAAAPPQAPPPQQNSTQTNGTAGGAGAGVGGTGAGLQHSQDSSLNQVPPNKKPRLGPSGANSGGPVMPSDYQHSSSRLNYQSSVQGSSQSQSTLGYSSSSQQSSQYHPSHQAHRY
T1 sequence (P24863 whole entry partner): as the sequence (P24863 whole entry partner) above

The GI50 is the concentration that inhibits growth by half. A word on the Vd: it is the apparent volume that relates the amount in the body to the concentration in plasma or blood. Higher therefore signals wide distribution into tissue. Regarding `CN1c2ccc(-c3cncc(Cl)c3N3CCC4(CC3)CNC(=O)O4)cc2CS1(=O)=O` [CMPD 2], the concentration for 50% growth inhibition (GI50) in the data set on HT29, in the data set with RKO [4], with COLO205 [6], with LS174T [10], in the data set on LS513 and in the data set on DLD1 [11] was above 30 µM in each case. The GI50 in the data set on Nomo-1 was 11 nM; with SW837 [12], above 30 µM; in the data set with SW948, above 30 µM; with SW620, above 30 µM; in the data set with LS180 [14], above 30 µM. In addition, the IC50 in the data set with COLO205 [1] is 8 nM; with RKO [2], above 30 µM; in the data set with SW837 [3], 6 nM; in the data set on LS174T [7], 10.8 ± 4.2 nM; with LS180 [8], 8 nM; against TRK3B it was 82 nM. Besides, the IC50 in the data set on DLD1 [9] turned out to be 63 nM; in the data set on p-STAT1^SER727 (setting [16]), 4.8 ± 5.5 nM; with p-STAT1^SER727 (setting [17]), 4.7 ± 5.5 nM; on CDK19, 1.6 ± 0.2 nM; with LS174T [13] it was 20 nM. Further, in [5], the “Inhibition of colony growth” value was “up to 50%”. Further, the “Mouse PK Cl” value in the data set “Mouse PK” is on record as 2.86 L/h/kg. Moreover, the “Mouse PK Vd” value in “Mouse PK” turned out to be 1.34 L/kg. Besides, the “Rat PK F” value in the data set “Rat PK” (0.2mg/kg i.v. or 0.5mg/kg p.o.) worked out at 12%. For the same molecule, the Vd in “Rat PK” (male, Wistar, rat, in vivo, iv, 0.2mg/kg i.v.) is 2.82 L/kg; in “Dog PK” (female, beagle, dog, in vivo, iv, 0.2mg/kg i.v.) it was 1.29 L/kg. Further, the clearance is 50 mL/min/kg in the data set “Rat PK” (male, Wistar, rat, in vivo, iv, 0.2mg/kg i.v., read-out: Rat PK Cl (converted)) and 32.2 mL/min/kg in the data set “Dog PK” (female, beagle, dog, in vivo, iv, 0.2mg/kg i.v., read-out: Dog PK Cl (converted)). The “Dog PK F” value in “Dog PK” (0.2mg/kg i.v. or 0.5mg/kg p.o.) was 43%.

In the case of `Cc1cc(-c2ncc(CC(=O)Nc3ccc(-c4cnccn4)cn3)cc2C)ccn1` [LGK974, reference compound], in data set [15], the Calcium deposition result was “reduced deposition of calcium” and the PINP secretion result is “reduced secretion”.

As to `N#Cc1ccc2ncnc(NCCc3ccccc3)c2c1` [Senexin A, reference compound], the IC50 at CDK8 was 86 ± 5.3 nM; at 7dF3 (read-out: 7dF3 IC50, inducible WNT-pathway luciferase reporter, mean ± s.d. or *± range) it was 340 ± 127 nM; with p-STAT1^SER727 (setting [17]), 730 ± 113 nM; at CDK19, 111 ± 15.2 nM.

Regarding `CN1CCN(C(=O)c2ccc3cc(CCNc4ncnc5ccc(C#N)cc45)ccc3c2)CC1` [Senexin B], the IC50 worked out at 28.9 ± 3.3 nM on CDK8; 160 ± 49 nM in the data set with 7dF3 (7dF3, read-out: 7dF3 IC50); 740 ± 14 nM in the data set with p-STAT1^SER727 (setting [16]).
